According to patent publication US7914763B1, “Process and apparatus for preparing manganese thiosulfate (MnTS) solution” (Tessenderlo Kerley, Inc., priority 2010, dated 2011):

Key:
[1] = pH of the compound as Mn plant nutrient source in water; cited from earlier work
[2] = at 25° C.
Source text: Manganese thiosulfate, also referred to herein as “MnTS”, is a liquid source of Mn with up to 20% concentration.

| Molecule | respective pH [1] | Mn concentration of saturated solution of MnTS (MnTS prepared by salt exchange of MnSO4 with calcium thiosulfate, evaporated to point of crystal formation, percent by weight) [% Mn] | Solubility of MnTS (saturated solution) (saturated solution, corresponding to measured Mn, percent by weight) [% MnTS] | Maximum solubility of MnTS (solid from evaporation redissolved in aqueous solution at ambient temperature, calculated from Mn concentration) | pH of solution of manganese thiosulfate [2] |
| --- | --- | --- | --- | --- | --- |
| O=S(=O)([O-])[O-].[Mn+2] [MnSO4, manganese sulfate] | 2.8 |  |  |  |  |
| manganese carbonate [MnCO3] | 6.4 |  |  |  |  |
| manganese thiosulfate [MnTS] |  | 5.85 | ~17 | 17-18% | 5-6 |
